# Key:
# [1] = system: Th2 cells and regulatory T cells (Treg); experiment: Populations of Th2 cells and Treg cells after genipin; assay type: cell-based, Mouse; details: genipin-treated; data not shown
# Protocol: (§1) Mouse lymph nodes and spleens were harvested, and naïve CD4 or CD8 T cells isolated via magnetic bead separation (STEMCELL Technologies) and activated in α-CD3 (10 μg/ml) and α-CD28 (1 μg/ml) pre-coated 96-well plates. Skewing conditions were as follows: Th1 cells/Tc1 cells ([…] 10 μ/ml α-IL-4), Th2 cells/Tc2 cells (20 ng/ml IL-4 and 10 μ/ml α-IFN-γ), Th17 cells/Tc17 cells (20 ng/ml IL-6, 1.25 ng/ml […], 20 ng/ml IL-1β, 20 ng/ml IL-23, 10 μg/ml α-IFN-γ and 10 μg/ml α-IL-4), and Treg cells (5 ng/ml TGF-β, 10 μg/ml α-IFN-γ and 10 μg/ml α-IL-4) in the indicated medium. Cells were cultured for 4-5 days followed by treatment with genipin (3.125 μM, 6.25 μM, 12.5 μM) or DMSO for 12-16 hours.
# (§2) Monoclonal antibodies were purchased from BD Biosciences or eBioscience. For intracellular cytokine staining (ICS), cells were first restimulated by PMA/ionomycin for 5 hours in the presence of GolgiStop (BD Biosciences), followed by surface epitope staining markers before being fixed/permeabilized (BD Cytofix/Cytoperm™) and stained with antibodies targeting intracellular antigens. Cells were finally fixed with 1.5% formaldehyde for 10 minutes at room temperature and analyzed on a FACSVerse flow cytometer (BD Bioscience). Data were analyzed using FlowJo software (Tree Star Inc.).
# Th17 cells = experiment: Cytokine staining of genipin-treated skewed Th17 cells; assay type: cell-based, Mouse; details: data not shown
# Protocol: as §1, §2
# Tc1 cells [2] = experiment: RNA-seq gene expression analysis of genipin-treated Tc1 cells; assay type: cell-based, Mouse
# Protocol: For RNA-seq analysis, the differential gene expression analysis was conducted by RNA-seq quantification following the procedure of Illumina and was performed by Genomics (Taiwan). Low-quality bases and sequencing adapters in the raw data generated from the Illumina sequencer were removed, and the final library quality was assessed on the Agilent Bioanalyzer 2100 system. The gene expression profiles in the genipin-treated and control Tc1 cells were analyzed and compared. The differentially expressed genes were calculated by EBSeq, and functional analysis, such as (gene ontology) GO analysis, was performed using cluster Profiler. For real-time PCR, total RNA was extracted using the RNeasy Micro Kit (Qiagen), and cDNA was synthesized with the PrimeScript™ RT reagent kit (TakaRa). Real-time PCR amplification of IFN-γ was performed in triplicate using TaqMan Gene Expression Assay (Mm01168134_m1) in a Step One Plus system (Applied Biosystems). 18S primers were used as endogenous controls, and the relative gene expression was calculated using the 2^ΔΔCt method.
# tumors of PDAC patients = experiment: Ex vivo genipin treatment of tumors of PDAC patients, flow cytometry; assay type: cell-based, human
# Protocol: as §2
# PDAC human subject study was approved by the Research Ethics Committee of China Medical University & Hospital (CMUH109-REC2-148). 10 ml of fresh blood and 0.1-0.5 mm^3 of tumor mass were collected on the same day from patients who underwent surgical resection. Monocytes were isolated from the patients' peripheral blood mononuclear cell (PBMC) or tumor mass. Cells were resuspended in RPMI medium containing 10% FBS and seeded at a density of 2×10^5/well in a 12-well plate. Cells were treated with genipin (12.5 μM, 25 μM) and incubated overnight before staining for the flow cytometry analysis.
# Tc1 cells [3] = experiment: Metabolic assays (Seahorse ECAR/OCR, mitochondrial pyruvate and acetyl CoA) in Tc1 cells; assay type: cell-based, Mouse
# Protocol: The real-time extracellular acidification rate (ECAR) and oxygen consumption rate (OCR) were measured using a Seahorse XF24 analyzer (Seahorse Bioscience), within XF Glycolysis Stress and XF Cell Mito Stress Test kits used to assess glycolysis and oxidative phosphorylation. 5×10^5 cells exposed to the indicated treatments were plated in an XF-24 microplate coated with Cell-Tak (Corning) one day before the assay. ECAR and OCR were measured after metabolic manipulations by the addition of oligomycin, carbonyl cyanide-p-trifluoromethoxy-phenylhydrazone (FCCP), 2-deoxyglucose (2-DG) and rotenone/anti-mycin A (R/A). Calculations were conducted with Agilent Seahorse Wave Software for Agilent Seahorse XF analyzers (Seahorse Bioscience). For isolation of mitochondria, Tc1 cells were frozen and thawed to weaken the membranes and resuspended in Reagent A of a mitochondria isolation kit (ab110170, Abcam), before being homogenized and centrifuged at 1,000×g for 10 minutes at 4° C. Supernatant was saved (SN #1) and the pellet resuspended in Reagent B. After homogenization and centrifugation, supernatant was saved (SN #2). SN #1 and SN #2 were mixed thoroughly and centrifuged at 12,000×g for 15 minutes at 4° C. The pellet was collected in Reagent C supplemented with protease inhibitors and was used for the pyruvate and acetyl COA assays. Briefly, the mitochondrial pyruvate and acetyl CoA levels in the Tc1 cells were assessed using a commercial Pyruvate Assay Kit (ab65342, Abcam) and PicoProbe Acetyl COA Assay Kit (ab87546, Abcam) according to the manufacturer's instructions.
# [4] = genipin-treated Tc1 cells, FIG. 2D
# [5] = genipin-treated Tc1 cells, data not shown
smiles,measurement,setting,value
COC(=O)C1=CO[C@@H](O)[C@@H]2C(CO)=CC[C@H]12 [genipin],Population of Th2 cells,[1],nor significantly altering the populations
same,Population of regulatory T cells (Treg),[1],nor significantly altering the populations
same,IFN-γ in Th17 cells,Th17 cells,increased IFN-γ
same,IL-17 expression in Th17 cells,Th17 cells,without an impact on IL-17 expression
same,"Expression of genes that control IFN-γ signaling, leukocyte activation and bioenergetic metabolism (GOBP enrichment)","Tc1 cells [2]; genipin 12.5 μM, FIG. 2C",correlated positively
same,"Expression of genes related to T cell activation and migration (Tbx21, Ccl5, Eomes, Il12rb2, Ctla2a, Ctla2b)",Tc1 cells [2]; [4],augmented the expression
same,"Expression of glycolytic pathway genes (Hk2, Gck, Pfkl, Aldoc, Pgam1, Eno2, Ldha)",Tc1 cells [2]; [4],increased expression
same,Tc1 cells (IFN-γ-producing CD8+ T cells),"tumors of PDAC patients; genipin 12.5, 25 μM overnight, FIG. 8C-8D",increased Tc1 cells
same,Th1 cells population (IFN-γ-producing CD4+ T cells),"tumors of PDAC patients; genipin overnight, FIG. 8G",no significant changes
same,Th17 cells (IL-17-producing CD4+ T cells),"tumors of PDAC patients; genipin overnight, FIG. 8H",did not increase
same,"Glycolysis readout, ECAR","Tc1 cells [3]; genipin 12.5 μM, Seahorse XF24, FIG. 2E",no functional impact
same,"Oxidative phosphorylation, OCR","Tc1 cells [3]; genipin 12.5 μM, Seahorse XF24, FIG. 2F",promoted oxidative phosphorylation
same,Acetyl CoA level in the mitochondria,"Tc1 cells [3]; genipin-treated Tc1 cells, FIG. 2G",increased the level of acetyl CoA
same,Mitochondrial pyruvate,"Tc1 cells [3]; genipin-treated Tc1 cells, FIG. 2H",parallel increase
same,Acetyl CoA level in the cytosol,Tc1 cells [3]; [5],increased the level of acetyl CoA
same,Cytosolic fraction of pyruvate,Tc1 cells [3]; [5],decreased

# From patent US20250018030A1, “PHARMACEUTICAL COMPOSITION FOR PROMOTING CANCER IMMUNOTHERAPY AND METHOD FOR PROMOTING CANCER IMMUNOTHERAPY” (China Medical University, priority 2023, published 2025)
